A short description of series [1]: Stability in fresh rat plasma. The format is in vitro ADME. As to conditions: 10 μM, 3 h. As to the method:
(§1) The stability of G2 and CPT was assessed in SGF, SIF and fresh rat plasma. SGF and SIF were prepared according to a previous report with slight modifications. Briefly, 0.3% (w/v) purified pepsin, 2 g of NaCl and 7 mL of HCl (12 M) were dissolved in 1000 mL of distilled water to obtain SGF (PH 1.2). To make SIF (PH 6.8), 6.8 g of KH2PO4, 1.0% (w/v) purified pancreatin and 77 mL of NaOH (0.2 M) were dissolved in 1000 mL of distilled water. SGF, SIF and rat plasma containing 10 μM G2 or CPT were incubated at 37 °C. At scheduled time points (0, 5, 10, 20, 30, 60, 90, 120, 180 min), 100 μL samples were collected and reaction was quenched immediately by adding 400 μL of ice cold acetonitrile. The mixture was votexed 2 min and centrifuged at 12000 rpm for 10 min. Then, the supernatant was filtered with a filter (0.22 μm) and detected by HPLC.
(§2) To determine the concentration of G2 and CPT in the stability investigation, a C18 (5 μm, 4.6 × 250 mm, Elite, Dalian, China) reverse-phase column was used. The chromatographic separation was performed on isocratic elution with acetonitrile-0.1% formic acid (80:20, v/v) and acetonitrile-0.1% formic acid (60:40, v/v) for G2 and CPT, respectively. Other conditions were the same as cell model.

The nature of series [2]: Stability in simulated intestinal fluid (SIF). Format: in vitro ADME. As to conditions: SIF pH 6.8, 10 μM, 37 °C, 3 h. As to the method: as §1, §2
Series [3] is described as follows: In vivo body distribution and pharmacokinetics after oral administration. Also on record: species or system Kunming mice. Particulars: male, Kunming, mouse. On the procedure: For body distribution investigations, 80 male Kunming mice (weight, 18–22 g; age, 6–8 weeks) were used. The animal experiments in this study were performed under the guidance of the care and use of laboratory animals in Zhejiang University of Technology, Hangzhou, China, and conformed to the National Institutes of Health Guide for Care and Use of Laboratory Animals (Publication No. 85-23). After fasting overnight, mice were received a single dose of G2 or CPT (30 mg/kg, calculated as CPT) suspension by gavage. At desired time (0.5, 1, 2, 4, 6, 8, 12 h), animals were sacrificed. Their blood samples were collected by eyeball removal and immediately centrifuged to separate plasma. The organs (heart, liver, spleen, lung, kidney) were removed and weighed before homogenization. And the plasma and tissue homogenate samples were stored at −80 °C until analysis.
For determination of the compound concentration, 200 μL methanol and 100 μL acetonitrile were added to 100 μL plasma or tissue homogenate to precipitate protein, and 5 μL IS (2 μM) was also added. Mixtures were votexed for 2 min and centrifuged at 12,000 rpm for 10 min at 4 °C. Then, supernatant was transferred to a new tube and evaporated by an EZ-2 personal solvent evaporator (Genevac, Suffolk, UK). Finally, 50 μL of 50% acetonitrile (v/v) was added to re-dissolve the samples. After centrifuged at 13,000 rpm for 10 min, the supernatant was used for HPLC analysis.
To determine G2 and CPT concentration in plasma and tissue homogenate, an Inertsil ODS-SP C18 column (5 μm, 4.6 × 250 mm; GL Sciences) was used. The mobile phase was made up of acetonitrile (A) and 0.1% formic acid (B). CPT was separated by an isocratic elution with 35:65 (v/v) A:B. A gradient eluant ((A:B) 0–3 min: 35:65; 3–8 min: from 35:65 to 80:20; 8–20 min: 80:20; 20–21 min: from 80:20 to 35:65; 21–25 min: 35:65) was used to separate G2. Other conditions were the same as cell model.
The pharmacokinetic analysis using a non-compartmental model with the PKSolver pharmacokinetic software (China Pharmaceutical University, Nanjing, China) was conducted to calculate the key parameters of G2 and CPT. In order to evaluate whether the conjugate had the trend of liver targeting, liver targeting index (LTI) was calculated by Equation (1) below:LTI = AUC0–t’ in liver/AUC0–t in plasma (1) where AUC0–t’ in liver is the AUC0–t of drug in liver and AUC0–t in plasma is the AUC0–t of drug in plasma. All the data were presented as mean ± SD. Statistical analysis were performed by Student’s t-test using the SPSS 22.0 statistical software program (IBM company, Denver, CO, USA), and p < 0.05 was used as the criterion for statistical significant.

The nature of series [4]: Stability in simulated gastric fluid (SGF). The format is in vitro ADME. As to conditions: 3 h. As to the method:
as §1, §2

Series [5] deals with HepG2 cells. As to the kind of experiment: Cellular uptake in HepG2 2D cell model with deoxycholic acid pretreatment. The format is cell-based, human. As to conditions: HepG2 2D model, deoxycholic acid 0.5 h, then 10 μM compound 2 h. On the procedure:
Cellular uptake of G2 and CPT into 2D HepG2 cell model was performed as described previously with slight modifications. […] Then, cells were cultured in an incubator at 37 °C. After reached 80% confluence, cell monolayers were pretreated with deoxycholic acid at different concentrations for 0.5 h. Next, the inhibitor of deoxycholic acid was removed and cells were washed twice with Hank’s balanced salt solution (HBSS). After 2 h incubation with 10 μM G2 or CPT, cells were washed three times with HBSS and digested with 200 μL of trypsin for 2 min to obtain single cell suspensions. Next, the cells were washed three times with cold HBSS and 250 μL of HBSS was added to resuspend the pellets. Then, the cells were lysed by freeze-thaw three times and sonicated for 10 min. […] The compound concentration was calculated by the corresponding standard curve. The protein concentration of the supernatant was determined by the Bradford method based on a standard curve made by desired concentrations of bovine serum albumin. The cellular uptake was presented as the quantity of G2 or CPT associated with 1 mg of cellular protein [32, 33].
(§3) Both G2 and CPT were measured by HPLC analysis, which was performed using a Shimadzu HPLC system (Shimadzu, Kyoto, Japan). […] The column was maintained at 30 °C and the absorbance detector wavelength was 363 nm. […]

Series [6] concerns HepG2 spheroids. Description: Cellular uptake in HepG2 3D spheroid cell model with deoxycholic acid pretreatment. Format: cell-based, human. As to conditions: HepG2 3D model. On the procedure: The liquid overlay method was employed for the culturing of HepG2 spheroids as described previously. Cells reached logarithmic growth phase were digested by trypsin then centrifuged. The cell number was counted using a hemocytomete and cells were diluted in growth medium to a density of 1 × 10^4 cells/mL. Spheroids were seeded by pipetting 2 mL of the cell suspension into each well of a 6-well ultra-low attachment (ULA) plates (Corning®, Wujiang, China) and incubated for 3 days.
After HepG2 spheroids were prepared as 3.3, they were transferred into 4 mL centrifuge tube and washed twice with HBSS. Then, the spheroids were resuspended with deoxycholic acid at different concentrations and seeded into the 6-well ULA plates again. After being cultured in an incubator for 0.5 h at 37 °C, the spheroids were transferred into 4 mL centrifuge tube and washed twice with HBSS to remove the deoxycholic acid. Then, they were resuspended with 10 μM G2 or CPT and seeded into the 6-well ULA plates. After being cultured in an incubator for 2 h at 37 °C, the spheroids were transferred into 4 mL centrifuge tube and washed three times with HBSS. […]
as §3

Series [7] concerns HepG2 cells. Description: Competitive inhibition of antitumor activity (MTT assay) with deoxycholic acid pretreatment. Particulars: for effect of deoxycholic acid pretreatment on cytotoxicity: HepG2, 1 μM deoxycholic acid 0.5 h, then 1 μM compound 48 h; for viability at 1 µM: Homo sapiens.
Protocol: After reaching logarithmic growth phase, HepG2 cells were passaged and 100 μL of the cell suspension was seeded into 96-well plates at a density of 5 × 10^4 cells/mL, then cells were cultured in an incubator (Thermo Fisher Scientific, Marietta, Ohio, USA) at 37 °C. After reached 80% confluence, cell monolayers were firstly incubated with or without 1 μM deoxycholic acid for 0.5 h. […] Next, cells were further incubated at 37 °C for 48 h. Then 20 μL of MTT reagent (5 mg/mL in PBS) was added and cells were incubated for another 4 h at 37 °C to allow MTT to be metabolized into formazan. Finally, the media was tapped out and 150 μL of DMSO was added to each well to dissolve the formazan crystals. After mixing, the absorbance was quantified at 490 nm using an ELISA Plate Reader (infinite M200 Pro, TECAN, Grodig, Salzburg, Austria).
[8] abbreviates: heart, po, 30 mg/kg, mice, oral 30 mg/kg calculated as CPT.
[9] abbreviates: kidney, po, 30 mg/kg, mice, oral 30 mg/kg calculated as CPT.
[10] abbreviates: liver, po, 30 mg/kg, mice, oral 30 mg/kg calculated as CPT.
Setting [11] is: lung, po, 30 mg/kg, mice, oral 30 mg/kg calculated as CPT.
The mark [12] stands for this setting: plasma, po, 30 mg/kg, mice, oral 30 mg/kg calculated as CPT.
Setting [13] is: spleen, po, 30 mg/kg, mice, oral 30 mg/kg calculated as CPT.

Structures are written as SMILES. Where two headings read alike, the source gives them in different places.

As for `CC[C@@]1(O)C(=O)OCc2c1cc1n(c2=O)Cc2cc3ccccc3nc2-1` [CPT, Camptothecin], the “remaining after incubation in rat plasma” value in series [1] (fresh rat plasma, 37 °C) is 24.4%. Moreover, the “degraded after incubation in SIF” value in series [2] is on record as 16.1%. The MRT inf is 6.35 ± 2.71 h in series [3] (heart, po, 30 mg/kg, heart, mice, oral 30 mg/kg calculated as CPT, read-out: MRT0–∞); 5.32 ± 0.46 h in series [3] (kidney, po, 30 mg/kg, kidney, mice, oral 30 mg/kg calculated as CPT, read-out: MRT0–∞); 4.26 ± 0.38 h in series [3] (liver, po, 30 mg/kg, liver, mice, oral 30 mg/kg calculated as CPT, read-out: MRT0–∞); 7.25 ± 1.77 h in series [3] (lung, po, 30 mg/kg, lung, mice, oral 30 mg/kg calculated as CPT, read-out: MRT0–∞); 3.22 ± 0.578 h in series [3] (plasma, po, 30 mg/kg, plasma, mice, oral 30 mg/kg calculated as CPT, read-out: MRT0–∞); 6.96 ± 2.95 h in series [3] (spleen, po, 30 mg/kg, spleen, mice, oral 30 mg/kg calculated as CPT, read-out: MRT0–∞). The area under the curve AUC(0-inf) in series [3] (setting [8]) is 3.64 ± 1.61 µM·h; in series [3] (setting [9]), 5.45 ± 1.19 µM·h; in series [3] (setting [10]), 7.46 ± 1.54 µM·h; in series [3] (setting [11]) it was 12.4 ± 4.43 µM·h; in series [3] (setting [12]), 1.68 ± 0.252 µM·h; in series [3] (setting [13]), 9.29 ± 2.53 µM·h. Besides, the AUC(0-t) was 2.86 ± 0.983 µM·h in series [3] (setting [8]); 4.83 ± 1.04 µM·h in series [3] (setting [9]); 6.95 ± 1.32 µM·h in series [3] (setting [10]); 9.8 ± 2.59 µM·h in series [3] (setting [11]); 1.56 ± 0.26 µM·h in series [3] (setting [12]); 7.56 ± 1.72 µM·h in series [3] (setting [13]). The Cmax in series [3] (setting [8]) was 954 ± 207 nM; in series [3] (setting [9]), 1330 ± 218 nM; in series [3] (setting [10]) it was 2080 ± 243 nM; in series [3] (setting [11]), 1640 ± 325 nM; in series [3] (setting [12]), 465 ± 84 nM; in series [3] (setting [13]), 1530 ± 195 nM. Besides, the Tmax in series [3] (setting [8]) was 0.6 ± 0.2 h; in series [3] (setting [9]), 0.8 ± 0.245 h; in series [3] (setting [10]) it was 1 h; in series [3] (setting [11]), 1.2 ± 0.4 h; in series [3] (setting [12]) it was 0.5 h; in series [3] (setting [13]), 0.9 ± 0.2 h. For the same compound, the Kp in series [3] (liver and plasma, mice, oral 30 mg/kg calculated as CPT, read-out: liver targeting index (LTI) = AUC0–t in liver/AUC0–t in plasma) was 4.84. Further, in series [4] (SGF pH 1.2, 10 μM, 37 °C), the “degraded rate after incubation in SGF” value is 37.9%. For the same compound, the “effect of deoxycholic acid pretreatment on uptake” value in series [5] was “no obvious change”. In addition, in series [6] (deoxycholic acid 0.5 h, then 10 μM compound 2 h), the “effect of deoxycholic acid on cellular uptake” value is “no distinct effect”. The “effect of deoxycholic acid pretreatment on cytotoxicity” value in series [7] was “no distinct effects”.
For `CC[C@@]1(OC(=O)COC(=O)CC[C@@H](C)[C@H]2CC[C@H]3[C@@H]4CC[C@@H]5C[C@H](O)CC[C@]5(C)[C@H]4C[C@H](O)[C@]23C)C(=O)OCc2c1cc1n(c2=O)Cc2cc3ccccc3nc2-1` [G2, CPT-20 (S)-O-acetate-deoxycholic acid], the “remaining after incubation in rat plasma” value in series [1] (rat, plasma) turned out to be 42.3%. In addition, in series [3] (in vivo, po), the “AUC0–t in liver relative to CPT” value is listed as 2.31 fold and the “increase of liver targeting index in comparison to CPT” value is 1.67 fold. This compound also returned a Kp in series [3] (in vivo, po, 30 mg/kg) of 8.07. This compound also registered an MRT inf in series [3] (in vivo, po, 30 mg/kg, MRT0–∞) of 4.36 ± 0.645 h. Besides, in series [4] (10 μM, pH 1.2), the “degraded rate after incubation in SGF” value is 15.0%. Besides, the “decrease of cellular uptake compared to deoxycholic acid-free group” value in series [6] (pretreatment with 200 μM deoxycholic acid 0.5 h, 10 μM compound 2 h) turned out to be 66.4%. In series [7], the “effect of deoxycholic acid pretreatment on cytotoxicity” value is on record as “markedly reduced”. Besides, the viability at 1 µM in series [7] (HepG2, read-out: cell viability, HepG2, 1 μM compound 48 h, after pretreatment with 1 μM deoxycholic acid for 0.5 h) came out at 71.1%. Besides, the viability at 1 µM in series [7] (HepG2, read-out: cell viability, HepG2, 1 μM compound 48 h, without deoxycholic acid pretreatment) was 51.3%.

The values are drawn from paper PMC6472190, “Enhanced Liver Targeting of Camptothecin via Conjugation with Deoxycholic Acid” (Molecules, 2019).
